Data: patent US6420131B1, “Use of fluorescein aryl ethers in high throughput cytochrome P450 inhibition assays” (Gentest Corporation, priority 1999, dated 2002)

Experiments:
[1] = molecular target: T1, panel of Human P450 enzymes (Homo sapiens, UniProt P04798); test: Substrate specificity, dealkylation of Compounds Ia and Ib by a panel of human P450 enzymes; type: biochemical; conditions: CYP1A1
T1 construct: purchased GENTEST Corporation; host or cells: baculovirus/insect cells (microsomes, SUPERSOMES)
T1 sequence (P04798 1-512): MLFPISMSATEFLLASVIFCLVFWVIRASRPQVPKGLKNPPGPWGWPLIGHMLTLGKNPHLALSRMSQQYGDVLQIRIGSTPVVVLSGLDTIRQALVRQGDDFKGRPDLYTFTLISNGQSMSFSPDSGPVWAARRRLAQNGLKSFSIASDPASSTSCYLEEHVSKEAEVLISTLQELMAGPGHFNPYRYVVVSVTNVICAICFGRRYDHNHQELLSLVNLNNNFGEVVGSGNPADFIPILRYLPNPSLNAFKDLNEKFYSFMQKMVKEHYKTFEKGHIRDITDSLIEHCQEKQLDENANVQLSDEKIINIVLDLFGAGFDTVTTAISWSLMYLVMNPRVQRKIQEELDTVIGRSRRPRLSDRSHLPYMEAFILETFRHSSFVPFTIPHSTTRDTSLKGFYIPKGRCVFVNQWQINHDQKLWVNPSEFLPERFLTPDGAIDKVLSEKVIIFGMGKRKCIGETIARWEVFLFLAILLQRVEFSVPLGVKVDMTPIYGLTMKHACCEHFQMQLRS
Description: (§1) The specificity of several cytochrome P450 enzymes for the dealkylation of Compound Ia (FIG. 1) and Compound Ib (FIG. 2) was examined.
(§2) Example Compounds Ia and Ib. […] Final incubation volume was 0.2 ml.

[2] = molecular target: T2, panel of Human P450 enzymes (Homo sapiens, UniProt P10632); test: as above; type: biochemical; conditions: CYP2C8
T2 construct: purchased GENTEST Corporation; host or cells: baculovirus/insect cells (microsomes, SUPERSOMES)
T2 sequence (P10632 1-490): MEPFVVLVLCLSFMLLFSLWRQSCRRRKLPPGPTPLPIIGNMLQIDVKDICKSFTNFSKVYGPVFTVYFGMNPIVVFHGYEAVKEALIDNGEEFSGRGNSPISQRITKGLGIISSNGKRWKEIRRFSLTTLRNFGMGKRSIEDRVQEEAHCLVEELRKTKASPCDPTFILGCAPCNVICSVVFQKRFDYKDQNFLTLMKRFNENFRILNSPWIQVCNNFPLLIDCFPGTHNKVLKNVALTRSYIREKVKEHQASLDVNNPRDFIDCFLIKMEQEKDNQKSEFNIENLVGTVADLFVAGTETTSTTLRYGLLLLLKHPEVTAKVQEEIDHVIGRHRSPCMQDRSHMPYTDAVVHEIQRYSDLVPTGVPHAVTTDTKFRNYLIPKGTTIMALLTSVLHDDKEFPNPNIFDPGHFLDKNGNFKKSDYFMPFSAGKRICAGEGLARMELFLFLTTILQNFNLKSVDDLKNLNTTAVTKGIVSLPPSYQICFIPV
Description: as §1, §2

[3] = tested on: panel of Human P450 enzymes; test: as above; type: biochemical; conditions: CYP2C9*1, CYP2C19, members of the CYP3A family
Description: as §1, §2

human CYP3A4 = human CYP3A4 (Homo sapiens, UniProt P08684); test: Enzyme kinetics of substrate turnover by cDNA-expressed CYP3A4; type: biochemical; set-up: purchased GENTEST Corporation P202; host or cells: baculovirus/insect cells (microsomes, SUPERSOMES); conditions: for Vmax: CYP3A4
human CYP3A4, sequence (P08684 whole entry): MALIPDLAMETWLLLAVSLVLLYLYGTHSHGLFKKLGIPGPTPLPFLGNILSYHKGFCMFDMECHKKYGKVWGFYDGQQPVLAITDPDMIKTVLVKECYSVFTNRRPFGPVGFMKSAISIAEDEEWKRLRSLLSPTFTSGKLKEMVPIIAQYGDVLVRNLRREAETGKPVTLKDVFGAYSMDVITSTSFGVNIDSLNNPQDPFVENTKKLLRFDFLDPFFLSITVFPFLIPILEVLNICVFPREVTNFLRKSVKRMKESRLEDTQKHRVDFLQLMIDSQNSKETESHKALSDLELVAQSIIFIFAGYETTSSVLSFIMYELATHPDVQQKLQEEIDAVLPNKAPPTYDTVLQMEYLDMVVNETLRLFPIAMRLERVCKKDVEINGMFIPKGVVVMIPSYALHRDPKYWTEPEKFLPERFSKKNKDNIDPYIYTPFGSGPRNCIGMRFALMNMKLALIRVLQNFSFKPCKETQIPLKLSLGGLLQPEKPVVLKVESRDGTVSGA
Description: The evaluation of compounds of Formula I were performed by measuring the kinetics of turnover using cDNA-expressed cytochromes P450 CYP3A4 and CYP2C8. Vmax and Km values are important for the optimization of the assay conditions and for setting the parameters for inhibition experiments.
Example Compound Ia. […] Final incubation volume was 0.2 ml. […] The activity was quantitated by comparing to a standard curve of fluorescein. Apparent Km and Vmax values were calculated by non-linear regression using SigmaPlot software.

Rat CYP2C12 = molecular target: T3, Rat CYP2C12 (Rattus norvegicus, UniProt P11510); test: Turnover of fluorometric substrates by rat CYP2C12; conditions: substrate uM: Ia 2, AMMC 20, CEC 40, MFC 50, BFC 50, BQ 40, BzRes 50; 30 min; enzyme 50 nM
T3 sequence (P11510 1-490): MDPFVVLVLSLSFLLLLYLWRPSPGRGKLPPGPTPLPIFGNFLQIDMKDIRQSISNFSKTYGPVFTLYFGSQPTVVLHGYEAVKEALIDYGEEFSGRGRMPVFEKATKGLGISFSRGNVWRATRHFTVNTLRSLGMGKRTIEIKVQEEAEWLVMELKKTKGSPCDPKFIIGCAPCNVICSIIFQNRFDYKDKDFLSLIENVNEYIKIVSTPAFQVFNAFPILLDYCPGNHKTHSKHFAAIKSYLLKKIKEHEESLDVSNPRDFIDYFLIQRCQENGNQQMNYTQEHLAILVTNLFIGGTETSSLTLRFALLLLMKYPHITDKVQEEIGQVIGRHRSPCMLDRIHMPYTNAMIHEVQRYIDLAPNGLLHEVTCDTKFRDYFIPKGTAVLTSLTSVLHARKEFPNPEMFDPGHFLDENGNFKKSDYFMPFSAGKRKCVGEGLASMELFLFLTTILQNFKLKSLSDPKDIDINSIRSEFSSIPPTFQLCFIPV

Rat CYP2E1 = Rat CYP2E1 (Rattus norvegicus, UniProt P05182); test: Turnover of fluorometric substrates by rat CYP2E1; conditions: substrate uM: Ia 2, AMMC 20, CEC 40, MFC 50, BFC 50, BQ 40, BzRes 50; 30 min; enzyme 87 nM, lymphoblastoid microsomes
Rat CYP2E1, sequence (P05182 whole entry): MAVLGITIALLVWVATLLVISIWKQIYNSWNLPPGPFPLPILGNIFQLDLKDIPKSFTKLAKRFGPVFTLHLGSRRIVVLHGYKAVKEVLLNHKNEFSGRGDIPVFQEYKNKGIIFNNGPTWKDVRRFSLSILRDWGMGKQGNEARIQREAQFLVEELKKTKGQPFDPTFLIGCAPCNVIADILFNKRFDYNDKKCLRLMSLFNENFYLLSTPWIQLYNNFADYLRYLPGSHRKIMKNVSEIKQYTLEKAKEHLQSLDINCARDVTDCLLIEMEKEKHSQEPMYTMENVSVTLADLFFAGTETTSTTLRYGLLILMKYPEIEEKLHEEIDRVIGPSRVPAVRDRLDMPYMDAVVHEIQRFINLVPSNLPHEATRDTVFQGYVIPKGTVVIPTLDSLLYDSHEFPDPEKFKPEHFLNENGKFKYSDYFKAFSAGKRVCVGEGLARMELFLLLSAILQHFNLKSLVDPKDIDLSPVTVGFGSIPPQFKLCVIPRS

Row | Turnover Numbers, CYP2C12 (Rat CYP2C12) | Structure (SMILES) | Vmax (human CYP3A4) | Turnover Numbers, CYP2E1 (Rat CYP2E1) | also measured
1 | – | O=C(OCc1ccccc1)c1ccccc1-c1c2ccc(=O)cc-2oc2cc(OCc3ccccc3)ccc12 [Compound Ia, O-Benzylfluorescein Benzyl Ester] | 22 ± 0.98 | – | dealkylation activity [1]: highest activity; dealkylation activity [2]: substantial enzyme activity; dealkylation activity [3]: catalyzed the dealkylation
2 | 0.24 pmol product/min/pmol enzyme | COc1ccc2c(C(F)(F)F)cc(=O)oc2c1 [MFC, 7-Methoxy-4-trifluoromethylcoumarin] | – | 2.11 pmol product/min/pmol enzyme | –
3 | 1.5 pmol product/min/pmol enzyme | c1ccc(COc2ccc3cccnc3c2)cc1 [BQ, 7-Benzyloxyquinoline] | – | – | –
4 | – | O=c1ccc2nc3ccc(OCc4ccccc4)cc3oc-2c1 [BzRes, 7-benzyloxyresorufin] | 2.3 ± 0.2 | – | Km (human CYP3A4; CYP3A4, apparent Km): 30 ± 7 µM
5 | – | CCOc1ccc2cc(C#N)c(=O)oc2c1 [CEC, 7-Ethoxy-3-cyanocoumarin] | – | 0.10 pmol product/min/pmol enzyme | –
